Key:
primary human HSC = settings: non-cytotoxic levels; cited from earlier work
DIAMOND mice = experiment: liver histology (fibrosis, steatosis, ballooning, inflammation) in DIAMOND mice on high-fat, high-sugar diet; format: in vivo, mouse; settings: for fibrosis score: Picosirius Red staining, scale of 0 to 4, 1 g/L in drinking water, 12 weeks
Source text: DIAMOND (Diet Induced Animal Model of Non-alcoholic fatty liver Disease) is a proprietary isogenic mouse strain that sequentially develops non-alcoholic fatty liver disease, non-alcoholic steatohepatitis, fibrosis, and hepatocellular carcinoma in response to a high-fat, high-sugar diet. Disease progression in the DIAMOND mice uniquely parallels human disease progression, including histopathology.
(§1) Twelve 8-wk old male DIAMOND mice were placed on ad libitum high fat diet (Harlan—ENVIGO TD.88317) and water containing glucose (18.9% w/v) and fructose (23.1% w/v); all mice remained on this diet throughout the study protocol. At 12 weeks of age, mice were divided into two groups: 1) 2-HOBA (n=6), and 2) vehicle controls (n=6). Animals in the 2-HOBA group received 2-HOBA in drinking water (1 g/L water with glucose and fructose). The vehicle control group received water without 2-HOBA (with glucose and fructose). Body weight and food intake were measured weekly. At […] of age, all animals underwent a glucose tolerance test (GTT) and MRI imaging to assess hepatic fat. For the GTT, animals were fasted for 12 hours and then glucose (2 g/kg bw of a 100 mg/mL glucose in sterile water) was administered by oral gavage. Blood was sampled at 0, 15, 30, 45, 60, 90, and 120 minutes after glucose administration and area under the curve was calculated. Animals were sacrificed at 24 weeks of age (12 weeks of 2-HOBA or vehicle treatment). Tissues and serum were collected for analysis.
Liver sections were stained with hematoxylin and eosin (for scoring of steatosis, hepatocyte ballooning, and inflammation) and Sirius red (for assessment of fibrosis). Scoring was performed in a blinded manner for steatosis, ballooning, inflammation, and necrosis using the following criterial, Steatosis (0-4): 0=<5%; 1=5-25%; 2=25-50%; 3=50-75%; 4=75-100%. Ballooning (0-3): 0=absent; 1=mild (focal involving fewer than three hepatocytes); 2=moderate (focal involving more than three hepatocytes or multifocal); 3=prominent (multifocal with more than two foci of three or more hepatocytes). Inflammation (0-4): 0=absent; 1=minimal (zero to one focus per 20× field); 2=mild (two foci); 3=moderate (three foci); 4=severe (four or more foci). Serum levels of glucose, alanine transaminase, and aspartate transaminase were measured. Liver mRNA expression was assessed via RT-qPCR for the following genes: Tnfa, Nlrpla, Il1b, Il18, Timp1, Colla1, ProCard, Nlrp3, Casp1, ProIl1b, Tgfb1, Bambi, Pdk4, and Gapdh. Two-tailed independent samples t-tests were used to compare endpoints between 2-HOBA and vehicle treated groups. Significance was set at α=0.05.

Timp1 = experiment: liver mRNA expression by RT-qPCR in DIAMOND mice, Timp1; format: in vivo, mouse; settings: qRT-PCR
Source text: as §1, with “Animals were sacrificed at 24 weeks of age (12 weeks of 2-HOBA or vehicle treatment). Tissues and serum were collected for analysis.” left out
(§2) Liver sections were stained with hematoxylin and eosin (for scoring of steatosis, hepatocyte ballooning, and inflammation) and Sirius red (for assessment of fibrosis). […] Serum levels of glucose, alanine transaminase, and aspartate transaminase were measured. Liver mRNA expression was assessed via RT-qPCR for the following genes: Tnfa, Nlrpla, Il1b, Il18, Timp1, Colla1, ProCard, Nlrp3, Casp1, ProIl1b, Tgfb1, Bambi, Pdk4, and Gapdh. […]

Colla1 = experiment: liver mRNA expression by RT-qPCR in DIAMOND mice, Colla1; format: in vivo, mouse; settings: qRT-PCR, not statistically significant (p=0.08)
Source text: as §1, with “Animals were sacrificed at 24 weeks of age (12 weeks of 2-HOBA or vehicle treatment). Tissues and serum were collected for analysis.” left out
as §2

[1] = in vitro and in vivo; cited from earlier work
cyclooxygenase enzymes = settings: cited from earlier work
HepG2 cells = settings: cited from earlier work
[2] = compared to vehicle treated DIAMOND mice

| Compound | HSC activation (α-SMA expression, MAPK activation, cytokine production) (primary human HSC) | hepatic fibrosis (DIAMOND mice; DIAMOND mice) | markers of inflammation (DIAMOND mice; DIAMOND mice) | fibrosis score (DIAMOND mice; the remaining two treated mice) | fibrosis score (DIAMOND mice; three of the treated mice) | degree of hepatic steatosis (DIAMOND mice; [2]) | degree of hepatocellular ballooning (DIAMOND mice; [2]) | incidence of fibrosis (DIAMOND mice; compared to vehicle treated DIAMOND mice, p=0.03) | liver Timp1 mRNA expression (Timp1) | Colla1 mRNA expression levels (Colla1) | protein and lipid adduction [1] | inhibition of cyclooxygenase enzymes (cyclooxygenase enzymes) | protection against H2O2-induced cytotoxicity (HepG2 cells) |
| --- | --- | --- | --- | --- | --- | --- | --- | --- | --- | --- | --- | --- | --- |
| 15-E2-isolevuglandin [15-E2-IsoLG] | promoted HSC activation | – | – | – | – | – | – | – | – | – | – | – | – |
| NCc1ccccc1O [2-HOBA, 2-Hydroxybenzylamine] | – | attenuates | without altering | 1 | 0 | similar | similar | significantly lower | reduced | tended to be lower | preventing protein and lipid adduction | does not inhibit | dramatically protected |

From patent publication US12636269B2, “Compositions and methods of use of gamma-ketoaldheyde scavengers for treating, preventing or improving fibrosis of the liver” (MTI Biotech, Inc., priority 2017, dated 2026)
